Structures can show the parent of a compound that is named as a salt.
Assays:
[1] = system: Human adenocarcinoma (HT29) cells; experiment: Antiproliferative activity in cancerous cells, cellular growth by haemocytometer; type: cell-based; settings: 96 hours, controls = 100, read-out: Proliferation %
Procedure: Determination of the Antiproliferative Activity of the Compounds of the Invention in Cancerous Cells.
Human adenocarcinoma (HT29) cells taken from colon affected by cancerous process were transferred into plates with 24 wells containing a cellular culture medium formed by 10% of foetal bovine serum, penicillin (50 U/ml), streptomycin ([…]) and PEG 400 (polyethylenglycol). After 24 hours a part of the plates is inoculated with the tested compounds dissolved in the carrier (PEG 400). 96 hours after the inoculation of the compounds the cellular growth was measured by haemocytometer. The results, reported in Table 2, are expressed as percentage of the cellular proliferation with respect to the controls.

[2] = system: liver injury induced by concanavalin A; experiment: Protection from liver injury induced by concanavalin A; type: in vivo; settings: ip, plasmatic glutamic-pyruvic transaminase vs treated control group (=100), 8 hours after concanavalin A 0.3 mg/rat i.v.; for response vs control in vivo at 300 mg/kg: 300 mg/kg intraperitoneal; for response vs control in vivo at 500 mg/kg: 500 mg/kg intraperitoneal; for response vs control in vivo at 200 mg/kg: 200 mg/kg intraperitoneal
Text: Determination of the capability of the compounds of the invention to protect the animals from the liver injury induced by concanavalin A.
The model in vivo used in the present example has been described in Tiegs G, Hentshel J, A Wendel. A T cell-dependent experimental liver injury in mice induced by Concanavalin A. J. Clin. Invest. 1992; 90:196-203.
The animals ([…] of Swiss stock weighing about 20 g) are divided in groups of at least No. 10 animals for group.
The animals receive concanavalin and solvent (treated control group), solvent (polyethylene glycol 400-untreated control group), concanavalin and tested compound dissolved in the solvent (treated groups).
Rats are treated intravenously with concanavalin A (0.3 mg/rat), and after 5 minutes they receive by intraperitoneal injection the tested compounds, at the doses reported in Table 1, dissolved in polyethylenglycol 400.
Eight hours after the concanavalin A injection all the animals were sacrificed and the blood collected and examined. The data, reported in Table 1, are expressed as value of the plasmatic glutamic-pyruvic transaminase percentage of the animals treated with the tested compound with respect to the animals of the treated control group.

[3] = system: Human adenocarcinoma HT29 cells; experiment: 3H-timidine incorporation in human adenocarcinoma HT29 cells; type: cell-based; settings: 15 hours, cells treated only with Cisplatinum = 100; for timidine incorporation, With 25 μM Cisplatinum: compound 200 μM plus Cisplatinum 25 μM; for timidine incorporation, Without Cisplatinum: compound 200 μM
Procedure: Determination In Vitro of the Effect of the Compounds of the Invention on the Timidine Incorporation in Human Adeno-Carcinoma HT29 Cells. Human adenocarcinoma cells are sown on plates having 24 wells (2.5×10^5 cells/plate) with a standard culture medium. After 24 hours some plates are inoculated with the tested compounds dissolved in dimethylsulphoxide at a 200 μM concentration and others are treated with the tested compounds dissolved in dimethylsulphoxide at a 200 μM concentration in the presence of a solution of cisplatinum 25 μM. After 15 hours of incubation the plates are put into contact with a solution of ^3H-timidine […] (RAS. 3,000 Ci/mol). The cell monolayer of each plate is first washed twice with a cold saline buffer, then treated with TCA (trichloroacetic acid) at 5% for 10 minutes and then washed three times with absolute alcohol. The cells of each well are dissolved in 500 μl of NaOH 0.1N and the incorporated radioactivity is determined by scintallation counting. The obtained results are reported in Table 4 and expressed as percentage of ^3H-Timidine incorporated in the cells treated with the tested compounds and in the presence of Cisplatinum, considering equal to 100 the amount of ^3H-Timidine incorporated in the cells treated only with Cisplatinum.

[4] = system: T24 human epithelial cells of bladder cancer; experiment: Antiproliferative activity, MTT, bladder cancer line T24; type: cell-based; settings: Epithelial cell, 96 h, 4 days, vs DMSO 1%, read-out: Inhibition of the proliferative activity (%); for inhibition at 100 µM: 10^-4 M; for inhibition at 10 µM: 10^-5 M; for inhibition at 1 µM: 10^-6 M
Procedure: (§1) Determination of the Antiproliferative Activity of the Compounds of the Invention in Cancerous Epithelial Cells of Bladder and Prostate.
(§2) The experiment was carried out by using three human epithelial cellular lines of the prostate cancer (PNT1A; LLNCaP; PC3) and three human epithelial cellular lines of the bladder cancer (T24; 647V; 1207), the various types of cellular lines are identified on the basis of the characteristics, in particular of the aggressiveness, of the cancerous process.
(§3) The cancerous cells are sown, with an initial concentration of 20,000 cells/cm^2, in plates having 96 wells with a cellular culture medium RPMI added with foetal bovine serum 5% and L-Glutamine 1%. Solutions in dimethylsulphoxide of the tested compounds at three different concentrations (10^−6 M; 10^−5M; 10^−4M) or the carrier (DMSO 1%) are added to the culture medium. 4 days after the treatment the cellular growth was measured by the method with MTT (3-[4,5-dimethylthiazol-2-yl]-2,5-diphenyltetrazolium bromide) de-scribed by Turner in: Turner T., Chen P., Goodly L. J., Wells A. Clin. Exp. Metastasis 1996, 14, 409-418. The results, reported in Table 3, are expressed as inhibition percentage of the cellular proliferation determined by measuring the cellular proliferation in the cellular cultures treated with the tested compounds with respect to that measured in cellular cultures treated with dimethylsulphoxide 1%.

[5] = system: PNT1A human epithelial cells of prostate cancer; experiment: Antiproliferative activity, MTT, prostate cancer line PNT1A; type: cell-based; settings: 96 h, 4 days, vs DMSO 1%, read-out: Inhibition of the proliferative activity (%); for inhibition at 100 µM: 10^-4 M; for inhibition at 10 µM: 10^-5 M; for inhibition at 1 µM: 10^-6 M
Procedure: as §1, §2, §3

[6] = system: human epithelial cellular lines of the prostate cancer and of the bladder cancer; experiment: Antiproliferative activity in prostate and bladder cancer lines, summary in words; type: cell-based; settings: cellular lines LNCaP and PC3, and 647V, 1207
Procedure: as §2, §3
The compound of Ex. 7, reported in the Table with the simplified denomination of nitrooxybutyl ester of the aspirin der. with ferulic ac. is active, at 10^−5 concentrations, in prostate tumours as shown by the results obtained on the cellular lines LNCaP and PC3.

[7] = system: PC3 human epithelial cells of prostate cancer; experiment: Antiproliferative activity, MTT, prostate cancer line PC3; type: cell-based; settings: Epithelial cell, 96 h, 4 days, vs DMSO 1%, read-out: Inhibition of the proliferative activity (%); for inhibition at 100 µM: 10^-4 M; for inhibition at 10 µM: 10^-5 M; for inhibition at 1 µM: 10^-6 M
Procedure: as §1, §2, §3

[8] = system: 1207 human epithelial cells of bladder cancer; experiment: Antiproliferative activity, MTT, bladder cancer line 1207; type: cell-based; settings: Epithelial cell, 96 h, 4 days, vs DMSO 1%, read-out: Inhibition of the proliferative activity (%); for inhibition at 100 µM: 10^-4 M; for inhibition at 10 µM: 10^-5 M; for inhibition at 1 µM: 10^-6 M
Procedure: as §1, §2, §3

[9] = system: 647V human epithelial cells of bladder cancer; experiment: Antiproliferative activity, MTT, bladder cancer line 647V; type: cell-based; settings: 96 h, 4 days, vs DMSO 1%, read-out: Inhibition of the proliferative activity (%); for inhibition at 100 µM: 10^-4 M; for inhibition at 10 µM: 10^-5 M; for inhibition at 1 µM: 10^-6 M
Procedure: as §1, §2, §3

[10] = system: LNCaP human epithelial cells of prostate cancer; experiment: Antiproliferative activity, MTT, prostate cancer line LNCaP; type: cell-based; settings: 96 h, 4 days, vs DMSO 1%, read-out: Inhibition of the proliferative activity (%); for inhibition at 100 µM: 10^-4 M; for inhibition at 10 µM: 10^-5 M; for inhibition at 1 µM: 10^-6 M
Procedure: as §1, §2, §3

CC(=O)Oc1ccccc1C(=O)O [Aspirin, Acetylsalicylic Acid, reference compound]
activity at 500 µM ([1]; HT-29, 500 μM): 100% | response vs control in vivo at 300 mg/kg [2]: 120% | timidine incorporation, With 25 μM Cisplatinum [3]: 100% | timidine incorporation, Without Cisplatinum [3]: 438%

CC(=O)Oc1ccccc1C(=O)OCc1cccc(CO[N+](=O)[O-])n1 [Ex. 1, 2-acetyloxybenzoic acid 6-(nitrooxymethyl)-2-methylpyridinyl ester hydrochloride]
activity at 10 µM ([1]; HT-29, 10 μM): 0%

CC(=O)Oc1ccccc1C(=O)OCc1ccc(CO[N+](=O)[O-])cn1 [Ex. 3, 2-acetyloxybenzoic acid 5-(nitrooxymethyl)-2-methylpyridinyl ester hydrochloride]
response vs control in vivo at 300 mg/kg [2]: 5%

CC(=O)Oc1ccccc1C(=O)OCc1ncccc1CO[N+](=O)[O-] [Ex. 4, 2-acetyloxybenzoic acid 3-(nitrooxymethyl)-2-methylpyridinyl ester hydrochloride]
response vs control in vivo at 300 mg/kg [2]: 7%

CC(=O)Oc1ccccc1C(=O)Oc1cccc(CO[N+](=O)[O-])c1 [Ex. 5, 3-nitrooxymethylphenyl ester of the 2-acetoxybenzoic acid]
activity at 300 µM ([1]; HT-29, 300 μM): 40% | timidine incorporation, With 25 μM Cisplatinum [3]: 46% | timidine incorporation, Without Cisplatinum [3]: 192%

COc1cc(/C=C/C(=O)Oc2ccc(NC(C)=O)cc2)ccc1OC(=O)CCCO[N+](=O)[O-] [Ex. 8, trans-3-[4-(4′-nitrooxybutyryloxy)-3-methoxyphenyl]-2-propenoic acid 4-(acetylamino)phenyl ester]
response vs control in vivo at 500 mg/kg [2]: 8%

CC(=O)Nc1ccc(OC(=O)CCCO[N+](=O)[O-])cc1 [Ex. 9, 4-nitrooxybutanoic acid 4′-acetylamino phenyl ester]
response vs control in vivo at 500 mg/kg [2]: 10%

O=C(Oc1cccc(CO[N+](=O)[O-])c1)c1ccccc1O [Ex. 15, 2-hydroxybenzoic Acid 3-(nitrooxymethyl)phenyl ester]
timidine incorporation, With 25 μM Cisplatinum [3]: 50% | timidine incorporation, Without Cisplatinum [3]: 246%

COc1cc(/C=C/C(=O)OCCCCO[N+](=O)[O-])ccc1OC(=O)C(C)c1ccc(CC(C)C)cc1 (stereo not drawn) [Ex. 16, Trans-3-[4-[α-methyl-[4-(-2-methylpropyl)benzene]acetyloxy]-3-methoxyphenyl]-2-propenoyl 4-(nitrooxy) butyl ester]
inhibition at 100 µM [4]: 22% | inhibition at 10 µM [4]: 0% | inhibition at 1 µM [4]: 0% | inhibition at 100 µM [5]: 20% | inhibition at 10 µM [5]: 4% | inhibition at 1 µM [5]: 0% | activity in very aggressive prostate and bladder tumours (in words) [6]: active | inhibition at 100 µM [7]: 47% | inhibition at 10 µM [7]: 9% | inhibition at 1 µM [7]: 4% | inhibition at 100 µM [8]: 43% | inhibition at 10 µM [8]: 0% | inhibition at 1 µM [8]: 2% | inhibition at 100 µM [9]: 45% | inhibition at 10 µM [9]: 0% | inhibition at 1 µM [9]: 0% | inhibition at 100 µM [10]: 60% | inhibition at 10 µM [10]: 33% | inhibition at 1 µM [10]: 8%

COc1cc(/C=C/C(=O)OCCCCO[N+](=O)[O-])ccc1OC(=O)C(C)c1ccc(-c2ccccc2)c(F)c1 (stereo not drawn) [Ex. 17, trans-3-[4-[2-fluoro-α-methyl-(1,1′-biphenyl)-4-acetyloxy]-3-methoxyphenyl]-2-propenoyl 4-(nitrooxy) butyl ester]
inhibition at 100 µM [4]: 23% | inhibition at 10 µM [4]: 0% | inhibition at 1 µM [4]: 0% | inhibition at 100 µM [5]: 13% | inhibition at 10 µM [5]: 2% | inhibition at 1 µM [5]: 0% | activity in very aggressive prostate and bladder tumours (in words) [6]: active | inhibition at 100 µM [7]: 53% | inhibition at 10 µM [7]: 20% | inhibition at 1 µM [7]: 8% | inhibition at 100 µM [8]: 34% | inhibition at 10 µM [8]: 0% | inhibition at 1 µM [8]: 0% | inhibition at 100 µM [9]: 41% | inhibition at 10 µM [9]: 13% | inhibition at 1 µM [9]: 0% | inhibition at 100 µM [10]: 58% | inhibition at 10 µM [10]: 26% | inhibition at 1 µM [10]: 1%

CC1=C(CC(=O)OCc2cccc(CO[N+](=O)[O-])n2)c2cc(F)ccc2/C1=C\c1ccc([S+](C)[O-])cc1 (centres unmarked) [Ex. 19]
response vs control in vivo at 200 mg/kg [2]: 23%

CC(=O)Oc1ccccc1C(=O)Oc1ccccc1CO[N+](=O)[O-] [Ex. 20, 2-acetyloxybenzoic acid 2-(nitrooxymethyl)phenyl ester]
activity at 20 µM ([1]; HT-29, 20 μM): 50%

CC(=O)Nc1ccc(O)cc1 [Paracetamol, reference compound]
response vs control in vivo at 500 mg/kg [2]: 160%

O=C(O)c1ccccc1O [Salicylic acid, Salicylic Acid, reference compound]
timidine incorporation, With 25 μM Cisplatinum [3]: 100% | timidine incorporation, Without Cisplatinum [3]: 438%

CC1=C(CC(=O)O)c2cc(F)ccc2/C1=C\c1ccc([S+](C)[O-])cc1 (centres unmarked) [Sulindac, reference compound]
activity at 50 µM ([1]; HT-29, 50 μM): 100% | response vs control in vivo at 200 mg/kg [2]: 115%

Reference: patent US7629368B2, “Nitroderivatives as drugs for diseases having an inflammatory basis” (Nicox S.A., priority 2000, dated 2009)
